Measurements as given in paper PMC5934995 (Biochemistry, 2017).
≈ marks a conversion by molar mass, not a printed value. Like-named read-outs stand apart in the source and are kept apart here. Marks after values point to notes of the source that are not given here.

Columns and labels:
E. coli ATCC 25922 = experiment: Broth microdilution MIC in chemically defined minimal medium; assay type: cell-based; details: for phenotype induced by treatment (L-Gln dependence of growth): E. coli in minimal medium with or without L-Gln
E. coli ATCC 29522 = experiment: Growth curves; assay type: cell-based
[1] = 23 °C, pH 7.2 phosphate buffer; isomerization to TδL-Thr; cited from earlier work
[2] = biological target: recombinant N-His6-tagged GS from E. coli (Escherichia coli, UniProt P0A9C5); experiment: biochemical; assay type: biochemical; details: for kinact: pH 7.4
[3] = biological target: recombinant N-His6-tagged GS from S. aureus (Staphylococcus aureus, UniProt P0A040); experiment: biochemical; assay type: biochemical; details: for kinact: pH 7.4
[4] = biological target: recombinant N-His6-tagged GS from Homo sapiens (Homo sapiens, UniProt P15104); experiment: biochemical; assay type: biochemical; details: for kinact: pH 7.4
Sequence of recombinant N-His6-tagged GS from Homo sapiens (P15104 whole entry): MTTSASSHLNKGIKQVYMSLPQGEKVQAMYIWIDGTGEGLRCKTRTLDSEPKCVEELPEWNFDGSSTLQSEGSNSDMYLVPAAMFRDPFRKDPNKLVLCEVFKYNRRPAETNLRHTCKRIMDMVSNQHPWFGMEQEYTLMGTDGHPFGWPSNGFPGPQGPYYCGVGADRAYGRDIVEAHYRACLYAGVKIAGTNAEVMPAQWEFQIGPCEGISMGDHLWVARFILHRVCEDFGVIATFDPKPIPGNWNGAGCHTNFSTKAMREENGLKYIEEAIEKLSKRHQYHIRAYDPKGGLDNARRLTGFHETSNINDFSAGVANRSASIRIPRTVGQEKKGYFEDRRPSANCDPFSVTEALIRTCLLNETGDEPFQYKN

[5] = system: unadenylylated E. coli GS; details: read-out: KI (literature); cited from earlier work
M. tuberculosis = details: in vivo, cited from earlier work
E. coli GS [6] = biological target: T1, E. coli GS (Escherichia coli, UniProt P0A9C5); assay type: biochemical; details: apparent, saturating ATP (10 mM) and NH3 (10 mM)
recombinant S. aureus GS = recombinant S. aureus GS (Staphylococcus aureus, UniProt P0A040); assay type: biochemical; details: apparent, saturating ATP (10 mM) and NH3 (10 mM)
recombinant human GS = recombinant human GS (Homo sapiens, UniProt P15104); assay type: biochemical; details: apparent, saturating ATP (10 mM) and NH3 (10 mM)
Sequence of recombinant human GS (P15104 whole entry): as above

E. coli GS [7] = biological target: T1, E. coli GS; details: cited from earlier work
human GS = details: cited from earlier work
[8] = system: GS isolated from Leishmania donovani; details: read-out: apparent Km for L-Glu (literature); cited from earlier work
E. coli GS [9] = biological target: T1, E. coli GS; details: cited from earlier work; remark: listed apart in the source
GS = details: relative to Glufos; cited from earlier work
[10] = substrate: N[C@@H](CCC(=O)O)C(=O)O; experiment: purified protein, by the assay type; assay type: biochemical; details: pH 7.4
[11] = substrate: Nc1ncnc2c1ncn2[C@@H]1O[C@H](COP(=O)(O)OP(=O)(O)OP(=O)(O)O)[C@@H](O)[C@H]1O; experiment: purified protein, by the assay type; details: other: apparent; saturating L-Glu (50 mM) and NH3 (10 mM); pH 7.4; 37.0 °C
[12] = end point, minimal medium, no amino acid supplement, 37 °C, 18–24 h
[13] = minimal medium supplemented with 5 mM L-Glu
[14] = apparent, Kitz–Wilson fit, 37 °C
[15] = read-out: apparent Km for ATP (literature)

tabtoxin [TβL-Thr]
phenotype induced by treatment (L-Gln dependence of growth) (E. coli ATCC 25922): glutamine auxotrophy | MIC90 (E. coli ATCC 25922; [12]): 0.0005 mM | MIC90 (E. coli ATCC 25922; [13]): 0.001 mM | growth curve with L-Gln supplementation (E. coli ATCC 29522; 2 μM, L-Gln supplementation 2.5 mM): matched the control | growth with L-Gln supplementation (E. coli ATCC 29522; 2 μM, medium supplemented with 0.1 mM L-Gln): recovered to near control levels | time after which growth started to recover (E. coli ATCC 29522; 2 μM, minimal medium): 26 h | time for which growth was suppressed (E. coli ATCC 29522; 100 μM): > 50 h | isomerization half-life [1]: 37 h

N[C@@H](CC[C@]1(O)CNC1=O)C(=O)O [TβL, Tabtoxinine-β-lactam]
kinact/KI (inhibitor efficiency) [2]: 180 ± 70 min^−1μM^−1 | difference in inhibitor efficiency (kinact/KI) for E. coli and human GS ([2]; E. coli GS versus human GS): 90 fold | kinact/KI ([2]; apparent inhibitor efficiency): 180 ± 70 min^−1μM^−1 ×10^3 | kinact [2, 14]: 0.3 ± 0.1 min⁻¹ | recovery of GS activity after dialysis of inhibition complex ([2]; several days of dialysis at 4 °C and 37 °C): could not be recovered | kinact/KI (inhibitor efficiency) [3]: 8 ± 3 min^−1μM^−1 | kinact/KI ([3]; apparent inhibitor efficiency): 8 ± 3 min^−1μM^−1 ×10^3 | kinact [3, 14]: 0.4 ± 0.1 min⁻¹ | kinact/KI (inhibitor efficiency) [4]: 2 ± 1 min^−1μM^−1 | kinact/KI ([4]; apparent inhibitor efficiency): 2 ± 1 min^−1μM^−1 ×10^3 | kinact [4, 14]: 0.3 ± 0.1 min⁻¹

NC[C@H]1O[C@H](O[C@H]2[C@H](O)[C@@H](O[C@H]3O[C@H](CO)[C@@H](O)[C@H](N)[C@H]3O)[C@H](N)C[C@@H]2N)[C@H](O)[C@@H](O)[C@@H]1O [kanamycin, reference compound]
MIC (E. coli ATCC 25922; control antibiotic on every plate, minimal medium): 0.008 mM (≈ 3.88 µg/mL)

CS(=N)(=O)CC[C@H](N)C(=O)O (some centres unmarked) [MetSox, Methionine sulfoximine]
difference in inhibitor efficiency (kinact/KI) for E. coli and human GS [2]: 250 fold | kinact/KI [2]: 100 ± 40 min^−1μM^−1 ×10^3 | kinact [2]: 0.4 ± 0.1 min⁻¹ | kinact/KI ([3]; apparent inhibitor efficiency): 28 ± 9 min^−1μM^−1 ×10^3 | kinact/KI ([4]; apparent inhibitor efficiency): 0.4 ± 0.3 min^−1μM^−1 ×10^3 | kinact [4, 14]: 0.4 ± 0.2 min⁻¹ | Ki [5]: 2000 nM | tolerability (M. tuberculosis; guinea pig): well tolerated | efficacy in guinea pig lung infection model (M. tuberculosis): effective and synergistic with isoniazid

N[C@@H](CCC(=O)O)C(=O)O [L-Glu]
kcat (L-Glu) (E. coli GS [6]): 131.7 ± 5 s⁻¹ | Km (E. coli GS [6]; read-out: Km (L-Glu)): 7.2 ± 0.8 mM | kcat (L-Glu) (recombinant S. aureus GS): 23.33 ± 1.67 s⁻¹ | Km (recombinant S. aureus GS; read-out: Km (L-Glu)): 52 ± 7 mM | kcat (L-Glu) (recombinant human GS): 85 ± 5 s⁻¹ | Km (recombinant human GS; read-out: Km (L-Glu)): 37 ± 5 mM | Km (E. coli GS [7]; read-out: apparent Km for L-Glu (literature)): 0.8 to 6.6 mM | Km (human GS; read-out: L-Glu Km (literature), recombinant human enzyme expressed in E. coli, colorimetric assay): 3.5 ± 0.7 mM | Km [8]: 26.3 ± 0.4 mM

CS(=O)(CCC(N)C(=O)O)=NP(=O)(O)O (centres unmarked) [MetSox-Pi, phospho-methionine sulfoximine]
active site occupancy (E. coli GS [9]): ~ 80%

C[P@](=O)(CC[C@H](N)C(=O)O)OP(=O)(O)O [Glufos-Pi, phospho-glufosinate]
number of GS active sites occupied (of 12) (E. coli GS [9]): 11

C[C@H](NC(=O)[C@H](C)NC(=O)[C@@H](N)CCP(C)(=O)[O-])C(=O)O.[Na+] [bialaphos sodium salt, Glufos-L-Ala-L-Ala tripeptide, reference compound]
phenotype induced by treatment (L-Gln dependence of growth) (E. coli ATCC 25922): confirmed

CP(=O)(O)C(O)CC(N)C(=O)O (centres unmarked) [γ-hydroxylated variant of Glufos]
increase of the rate of GS activation (GS): 50%

CP(=O)(O)CCC(N)C(=O)O (centres unmarked) [Glufos, glufosinate]
kinact/KI [2]: 11700 M⁻¹ s⁻¹ | difference in inhibitor efficiency (kinact/KI) for E. coli and human GS ([2]; E. coli GS versus human GS): 120 fold | kinact [2]: 0.7 min⁻¹ | kinact/KI [3]: 500 M⁻¹ s⁻¹ | kinact [3]: 0.4 min⁻¹ | kinact/KI [4]: 100 M⁻¹ s⁻¹ | kinact [4]: 0.9 min⁻¹ | Ki [5]: 1000 nM

Nc1ncnc2c1ncn2[C@@H]1O[C@H](COP(=O)(O)OP(=O)(O)OP(=O)(O)O)[C@@H](O)[C@H]1O [ATP, adenosine triphosphate]
Km (E. coli GS [7]; [15]): 0.1 to 0.7 mM | Km (human GS; [15]): 1.8 to 2.8 mM

C[C@H](N)C(=O)N[C@@H](C)C(=O)NC(CCP(C)(=O)O)C(=O)O (stereo partly drawn) [AAG, L-Ala-L-Ala-Glufos]
phenotype induced by treatment (L-Gln dependence of growth) (E. coli ATCC 25922): glutamine auxotrophy | MIC90 (E. coli ATCC 25922; [12]): 0.0005 mM (≈ 0.162 µg/mL) | MIC90 (E. coli ATCC 25922; [13]): 0.001 mM (≈ 0.323 µg/mL) | time for which growth was fully suppressed (E. coli ATCC 29522; 2 μM): > 66 h

B1: S. aureus GS (SA) (Staphylococcus aureus subsp. aureus N315) (protein)
chain: MPKRTFTKEDIRKFAEEENVRYLRLQFTDILGTIKNVEVPVSQLEKVLDNEMMFDGSSIEGFVRIEESDMYLHPDLDTWVIFPWTAGQGKVARLICDVYKTDGTPFEGDPRANLKRVLKEMEDLGFTDFNLGPEPEFFLFKLDEKGEPTLELNDDGGYFDLAPTDLGENCRRDIVLELEDMGFDIEASHHEVAPGQHEIDFKYADAVTACDNIQTFKLVVKTIARKHNLHATFMPKPLFGVNGSGMHFNVSLFKGKENAFFDPNTEMGLTETAYQFTAGVLKNARGFTAVCNPLVNSYKRLVPGYEAPCYIAWSGKNRSPLIRVPSSRGLSTRIEVRSVDPAANPYMALAAILEAGLDGIKNKLKVPEPVNQNIYEMNREEREAVGIQDLPSTLYTALKAMRENEVIKKALGNHIYNQFINSKSIEWDYYRTQVSEWERDQYMKQY
Km [10]: 52 ± 7 mM | kcat [10]: 23.3 ± 1.67 s⁻¹ | kcat/Km [10]: 450 ± 66.7 M⁻¹ s⁻¹

B2: recombinant S. aureus GS (Staphylococcus aureus) (protein)
chain: MPKRTFTKDDIRKFAEEENVRYLRLQFTDILGTIKNVEVPVSQLEKVLDNEMMFDGSSIEGFVRIEESDMYLHPDLDTWVIFPWTAGQGKVARLICDVYKTDGTPFEGDPRANLKRVLKEMEDLGFTDFNLGPEPEFFLFKLDEKGEPTLELNDDGGYFDLAPTDLGENCRRDIVLELEDMGFDIEASHHEVAPGQHEIDFKYADAVTACDNIQTFKLVVKTIARKHNLHATFMPKPLFGVNGSGMHFNVSLFKGKENAFFDPNTEMGLTETAYQFTAGVLKNARGFTAVCNPLVNSYKRLVPGYEAPCYIAWSGKNRSPLIRVPSSRGLSTRIEVRSVDPAANPYMALAAILEAGLDGIKNKLKVPEPVNQNIYEMNREEREAVGIQDLPSTLYTALKAMRENEVIKKALGNHIYNQFINSKSIEWDYYRTQVSEWERDQYMKQY
Km [11]: 1.8 ± 0.1 mM | kcat [11]: 12 s⁻¹ | kcat/Km [11]: 6670 M⁻¹ s⁻¹

B3: recombinant E. coli GS (Escherichia coli K-12) (protein)
chain: MSAEHVLTMLNEHEVKFVDLRFTDTKGKEQHVTIPAHQVNAEFFEEGKMFDGSSIGGWKGINESDMVLMPDASTAVIDPFFADSTLIIRCDILEPGTLQGYDRDPRSIAKRAEDYLRSTGIADTVLFGPEPEFFLFDDIRFGSSISGSHVAIDDIEGAWNSSTQYEGGNKGHRPAVKGGYFPVPPVDSAQDIRSEMCLVMEQMGLVVEAHHHEVATAGQNEVATRFNTMTKKADEIQIYKYVVHNVAHRFGKTATFMPKPMFGDNGSGMHCHMSLSKNGVNLFAGDKYAGLSEQALYYIGGVIKHAKAINALANPTTNSYKRLVPGYEAPVMLAYSARNRSASIRIPVVSSPKARRIEVRFPDPAANPYLCFAALLMAGLDGIKNKIHPGEAMDKNLYDLPPEEAKEIPQVAGSLEEALNELDLDREFLKAGGVFTDEAIDAYIALRREEDDRVRMTPHPVEFELYYSV
Km [11]: 0.7 ± 0.1 ^a mM | kcat [11]: 122 s⁻¹ | kcat/Km [11]: 173000 M⁻¹ s⁻¹

B4: E. coli GS (EC) (Escherichia coli K-12) (protein)
chain: SAEHVLTMLNEHEVKFVDLRFTDTKGKEQHVTIPAHQVNAEFFEEGKMFDGSSIGGWKGINESDMVLMPDASTAVIDPFFADSTLIIRCDILEPGTLQGYDRDPRSIAKRAEDYLRSTGIADTVLFGPEPEFFLFDDIRFGSSISGSHVAIDDIEGAWNSSTQYEGGNKGHRPAVKGGYFPVPPVDSAQDIRSEMCLVMEQMGLVVEAHHHEVATAGQNEVATRFNTMTKKADEIQIYKYVVHNVAHRFGKTATFMPKPMFGDNGSGMHCHMSLSKNGVNLFAGDKYAGLSEQALYYIGGVIKHAKAINALANPTTNSYKRLVPGYEAPVMLAYSARNRSASIRIPVVSSPKARRIEVRFPDPAANPYLCFAALLMAGLDGIKNKIHPGEAMDKNLYDLPPEEAKEIPQVAGSLEEALNELDLDREFLKAGGVFTDEAIDAYIALRREEDDRVRMTPHPVEFELYYSV
Km [10]: 7.2 ± 0.8 mM | kcat [10]: 132 ± 5 s⁻¹ | kcat/Km [10]: 18300 ± 1670 M⁻¹ s⁻¹
